Test results published in BindingDB's records for doi:10.1021/jm950543x (University of Caen Normandy, 1996).

Test: Binding affinity for 5-hydroxytryptamine 2C receptor

- IC50: 355 nM
Structure (SMILES): CN1CCN(c2nc3sccc3n3cccc23)CC1
